The source made the active and inactive calls. Rule as the data show it: actives have a measured IC50 and inactives only a lower limit.
target: Envelope glycoprotein gp160 (Human immunodeficiency virus 1, UniProt Q6QLK5); assay: cell-free HIV fusion peptide-binding blockers – biochemical, uHTS, fluorescence dequenching, […] (AID 1986)
Sequence (Q6QLK5 whole entry, the tested form may be a part): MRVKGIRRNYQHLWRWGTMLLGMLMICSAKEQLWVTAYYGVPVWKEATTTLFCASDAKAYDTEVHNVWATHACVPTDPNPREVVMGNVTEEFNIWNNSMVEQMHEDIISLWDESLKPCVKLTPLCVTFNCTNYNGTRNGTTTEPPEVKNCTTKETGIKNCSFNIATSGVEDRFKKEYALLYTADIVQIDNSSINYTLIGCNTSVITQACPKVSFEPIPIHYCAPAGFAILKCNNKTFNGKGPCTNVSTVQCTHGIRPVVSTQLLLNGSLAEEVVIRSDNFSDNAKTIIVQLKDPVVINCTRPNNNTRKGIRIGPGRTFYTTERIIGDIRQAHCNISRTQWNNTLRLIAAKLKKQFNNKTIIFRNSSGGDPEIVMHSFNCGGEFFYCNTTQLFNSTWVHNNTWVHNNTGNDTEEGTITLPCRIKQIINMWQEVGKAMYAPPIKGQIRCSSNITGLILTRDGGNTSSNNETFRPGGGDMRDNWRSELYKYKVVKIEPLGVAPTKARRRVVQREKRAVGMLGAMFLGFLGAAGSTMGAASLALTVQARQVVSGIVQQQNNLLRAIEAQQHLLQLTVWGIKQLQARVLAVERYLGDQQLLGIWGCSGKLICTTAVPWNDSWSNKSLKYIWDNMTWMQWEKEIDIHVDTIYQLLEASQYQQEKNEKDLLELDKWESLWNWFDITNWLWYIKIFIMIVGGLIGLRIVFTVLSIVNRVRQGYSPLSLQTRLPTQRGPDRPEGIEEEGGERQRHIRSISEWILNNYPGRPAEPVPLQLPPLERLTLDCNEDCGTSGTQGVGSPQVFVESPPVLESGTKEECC

SMILES	IC50
O=C(O)CN1C(=O)/C(=C\c2cccc(OCc3ccc(Cl)cc3)c2)SC1=S	13.6 µM (active)
CCCCCCc1c(C)c2ccc(OCC(=O)N[C@@H](Cc3ccccc3)C(=O)O)cc2oc1=O	22.8 µM (active)
O=C1NC(=S)N(c2ccc(F)cc2)C(=O)/C1=C/c1ccco1	15.6 µM (active)
Cc1cc(C)cc(-n2cccc2/C=C2/C(=N)N3C(=NC2=O)SN=C3S(C)(=O)=O)c1	11.6 µM (active)
O=[N+]([O-])c1cccc(S(=O)(=O)Nc2nc3ccccc3nc2Nc2cccc(S(=O)(=O)N3CCCCC3)c2)c1	14.5 µM (active)
Cc1ccc(C)c(S(=O)(=O)/N=C2\C=C(NS(=O)(=O)c3ccccc3)C(=O)c3ccccc32)c1	12.9 µM (active)
